In patent US20170224852A1, “BENZAZEPIN-1-OL-DERIVED PET LIGANDS WITH HIGH IN VIVO NMDA SPECIFICITY” (ETH ZURICH, priority 2016, published 2017):

Tests used:
[1] = target: T1, NMDA-rich brain regions (Rattus norvegicus, UniProt P35439+Q00960); experiment: PET scans of rat brain with [11C]WMS1405; type: in vivo, Wistar rats; details: for accumulation in rat brain (PET): i.v. tail vein, 0 to 60 min p.i., baseline
T1 construct: from tissue; host or cells: brain of living Wistar rats (in vivo PET)
Protocol: (§1) Wistar rats (331-353 g) were under isoflurane anaesthesia (2.5-5% in oxygen/air 1/1) for all procedures and temperature and respiration were controlled with warm air and by adjusting the isoflurane dosage. A dynamic PET scan was started with a calibrated VISTA eXplore/Super Argus PET/CT scanner (Sedecal, Madrid, Sprain; axial field of view 4.8 cm) and at time zero, 32-52 MBq (0.44-0.78 nmol/kg, 250-300 μL) [^11C]NB1 were injected via a tail vein.

[2] = target: T2, GluN1/GluN2B NTD (Rattus norvegicus, UniProt P35439+Q00960); experiment: In vitro autoradiography of [11C]NB1 on rat brain slices; type: binding; details: for blocking of [11C]NB1 binding to rat brain slices: 10 μM competitor with 5.4 nM [11C]NB1
T2 construct: horizontal rat brain slices (20 μm) of a male Wistar rat; from tissue; host or cells: rat brain slices (male Wistar rat)
T2 sequence (Q00960 27-1482, other chains not shown): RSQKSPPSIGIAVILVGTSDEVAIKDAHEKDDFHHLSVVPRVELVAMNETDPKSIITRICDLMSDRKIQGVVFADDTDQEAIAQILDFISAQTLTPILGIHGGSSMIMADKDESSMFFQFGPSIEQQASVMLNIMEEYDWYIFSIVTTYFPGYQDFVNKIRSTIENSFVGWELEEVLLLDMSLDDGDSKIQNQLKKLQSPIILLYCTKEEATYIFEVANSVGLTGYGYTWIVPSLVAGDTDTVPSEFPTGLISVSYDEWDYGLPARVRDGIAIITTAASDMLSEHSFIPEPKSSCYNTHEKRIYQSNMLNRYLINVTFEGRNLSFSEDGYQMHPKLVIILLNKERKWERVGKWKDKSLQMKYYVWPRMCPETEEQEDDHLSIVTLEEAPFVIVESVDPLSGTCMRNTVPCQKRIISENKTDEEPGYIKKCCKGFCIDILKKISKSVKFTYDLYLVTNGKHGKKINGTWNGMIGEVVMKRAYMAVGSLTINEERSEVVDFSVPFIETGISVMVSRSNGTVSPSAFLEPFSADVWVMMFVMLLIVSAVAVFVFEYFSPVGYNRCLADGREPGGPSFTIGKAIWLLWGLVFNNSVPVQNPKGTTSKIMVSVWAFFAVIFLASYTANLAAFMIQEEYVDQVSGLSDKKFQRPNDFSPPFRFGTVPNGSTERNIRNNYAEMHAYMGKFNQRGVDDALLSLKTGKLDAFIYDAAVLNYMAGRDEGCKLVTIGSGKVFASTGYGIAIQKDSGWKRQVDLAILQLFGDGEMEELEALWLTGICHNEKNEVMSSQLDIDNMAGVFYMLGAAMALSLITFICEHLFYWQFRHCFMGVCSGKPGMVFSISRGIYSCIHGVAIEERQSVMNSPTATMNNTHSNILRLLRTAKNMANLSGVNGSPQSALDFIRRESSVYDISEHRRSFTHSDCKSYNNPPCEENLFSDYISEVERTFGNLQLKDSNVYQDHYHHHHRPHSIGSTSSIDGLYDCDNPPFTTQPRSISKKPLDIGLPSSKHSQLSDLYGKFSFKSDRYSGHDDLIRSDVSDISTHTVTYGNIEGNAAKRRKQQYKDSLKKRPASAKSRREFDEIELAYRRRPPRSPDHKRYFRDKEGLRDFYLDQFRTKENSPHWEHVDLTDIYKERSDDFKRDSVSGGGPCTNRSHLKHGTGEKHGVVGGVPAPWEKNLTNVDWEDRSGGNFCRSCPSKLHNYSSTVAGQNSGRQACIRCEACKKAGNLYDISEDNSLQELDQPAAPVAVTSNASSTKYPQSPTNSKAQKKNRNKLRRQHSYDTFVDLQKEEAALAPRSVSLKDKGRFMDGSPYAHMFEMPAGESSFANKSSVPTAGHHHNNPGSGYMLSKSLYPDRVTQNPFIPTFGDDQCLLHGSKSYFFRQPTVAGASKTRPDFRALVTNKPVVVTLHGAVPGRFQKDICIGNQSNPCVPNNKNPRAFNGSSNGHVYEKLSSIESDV
Protocol: After incubation, the slices were washed with HEPES/BSA for 8 min and twice with HEPES buffer for 3 min followed by two 5-second rinses with water. The dried slices were exposed for 20 min to a phosphorimager plate, read in a phosphorimager BAS5000 (Fuji, Tokyo, Japan) and analyzed with the software AIDA v. 4.5 (Raytest Isotopenmessgerate GmbH, Germany).

[3] = target: T3, signal receptor (Rattus norvegicus, UniProt Q9R0C9); experiment: In vitro displacement of [3H](+)pentazocine from rat brain membranes; type: binding; design: from tissue; host or cells: rat brain membranes
T3 sequence (Q9R0C9 whole entry): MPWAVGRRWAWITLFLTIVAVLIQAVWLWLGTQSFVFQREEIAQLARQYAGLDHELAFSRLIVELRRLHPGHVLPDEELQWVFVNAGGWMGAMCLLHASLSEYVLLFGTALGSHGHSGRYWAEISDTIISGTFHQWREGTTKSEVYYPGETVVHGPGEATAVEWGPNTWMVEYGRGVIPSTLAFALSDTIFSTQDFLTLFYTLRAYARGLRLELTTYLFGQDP
Protocol: (§2) FIG. 4A. […] One out of three independent experiments. Triplicate incubations with standard deviations. Solid line, fit IC50 function. Upper broken line, binding of 2.9 nM [^3H](+)pentazocine alone. […] Baseline and blockade (circles) as in FIGS. 2B and 2C. Squares, co-injection of 2.5 mg/kg (+)-pentazocine.
In vitro binding study with [^3H](+)pentazocine, a ligand for signal receptor.

[4] = target: signal receptor; details: read-out: Kd at signal receptor; Lever et al., Synapse 2006; cited from earlier work
[5] = target: T1, NMDA-rich brain regions; experiment: PET scans of rat brain with [18F]WMS1410; type: in vivo, Wister rat
Protocol: as §1
Similar PET experimental procedure as mentioned above for [^11C]WMS1405 was applied for imaging [^18F]WMS1410 with Wister rat.

[6] = test system: GluN2B(C,D)-containing NMDA receptors; experiment: PET receptor occupancy after eliprodil administration at various doses; type: in vivo, rat
[7] = Garrigou-Cadenne et al. 1995; cited from earlier work
[8] = target: T3, signal receptor; details: co-injection; (+)-pentazocine 2.5 mg/kg, haloperidol 0.13 mg/kg
Protocol: as §2

T1 sequence (Q00960 27-1482, other chains not shown): as the sequence (Q00960 27-1482, other chains not shown) above

[11CH3]Oc1ccc2c(c1)CCN(CCCCc1ccccc1)CC2O (single isomer, unassigned; stereoisomer b) [Stereoisomer B(+)]
accumulation in rat brain (PET) [1]: accumulates more than the racemate

C[C@H](NC(c1cccc2[nH]c(=O)c(=O)[nH]c12)P(=O)(O)O)c1ccc(Br)cc1 (stereo partly shown) [AAM077]
blocking of [11C]NB1 binding to rat brain slices [2]: not

COc1ccc2c(c1)CCN(CCCCc1ccccc1)CC2O (stereo not shown) [WMS1405]
Ki ([3]; 2.9 nM [3H](+)pentazocine, rat brain membranes): 1000 to 10000 nM | competition for the binding of (+)pentazocine to signal receptor ([3]; in vitro): does not compete

CC(C)=CCN1CC[C@]2(C)c3cc(O)ccc3C[C@H]1[C@H]2C [[^3H](+)pentazocine]
Kd [4]: 1.6 nM

[11CH3]Oc1ccc2c(c1)CCN(CCCCc1ccccc1)CC2O (stereo not shown) [[^11C]WMS1405]
binding to rat brain slices by in vitro autoradiography ([2]; 5.4 nM tracer, 30 min, room temperature, baseline): high binding in most brain regions | accumulation in rat brain (PET) [1]: accumulates in NMDA-rich brain regions

OC1CN(CCCCc2ccccc2)CCc2cc(OCC[18F])ccc21 (stereo not shown) [[^18F]WMS1410]
accumulation in rat brain (PET) ([5]; baseline): accumulates in NMDA-rich brain regions

OC(CN1CCC(Cc2ccc(F)cc2)CC1)c1ccc(Cl)cc1 (stereo not shown) [eliprodil]
blocking of [11C]NB1 binding to rat brain slices [2]: blocked | blockade and displacement of [11C]WMS1405 in rat brain (PET) ([1]; eliprodil 1 mg/kg, displacement 20 min after tracer injection): blocked and displaced | blockade of [18F]WMS1410 in rat brain (PET) ([5]; eliprodil 1 mg/kg co-injection): blocked | receptor occupancy ([6]; at 70 μg/kg): 99% | dose for 50% receptor occupancy ([6]; brain stem (GluN2B-poor but GluN2D-rich)): 7.7 nmol/kg | dose for 50% receptor occupancy ([6]; midbrain (GluN2B-poor but GluN2D-rich)): 6.2 nmol/kg | brain/plasma ratio [7]: about 20

CC(C)=CCN1CCC2(C)c3cc(O)ccc3CC1C2C (stereo not shown) [pentazocine]
reduction of [11C]WMS1405 binding in vivo [8]: reduced [^11C]WMS1405 binding to similar levels as under blocking conditions with eliprodil
